Activity calls are given as the source filed them. The rule behind the calls is not given here.

Results on 2 compounds are retold here after ChEMBL document CHEMBL5058643, “Data for DCP probe BI-2081” (2022).

Series [1] addresses Beta-2 adrenergic receptor (Homo sapiens) (UniProt P07550). As to conditions: Compound concentration 10.0 uM.
Series [2] addresses T1, Muscarinic acetylcholine receptor M2 (Homo sapiens) (UniProt P08172).
T1 sequence (whole entry): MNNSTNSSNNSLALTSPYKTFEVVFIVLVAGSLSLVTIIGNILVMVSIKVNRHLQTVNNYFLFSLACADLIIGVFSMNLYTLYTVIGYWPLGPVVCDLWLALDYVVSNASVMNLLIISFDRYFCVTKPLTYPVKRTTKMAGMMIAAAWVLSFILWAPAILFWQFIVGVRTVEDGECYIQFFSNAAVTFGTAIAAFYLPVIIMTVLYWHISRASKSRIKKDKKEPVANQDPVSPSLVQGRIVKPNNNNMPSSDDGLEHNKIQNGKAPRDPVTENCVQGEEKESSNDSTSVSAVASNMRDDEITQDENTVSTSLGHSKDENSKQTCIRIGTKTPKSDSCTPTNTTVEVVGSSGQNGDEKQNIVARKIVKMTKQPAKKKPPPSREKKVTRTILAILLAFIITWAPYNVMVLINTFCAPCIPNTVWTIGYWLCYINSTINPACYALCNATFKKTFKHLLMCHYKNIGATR
The series can be described thus: M2/H Eurofins SafetyScreen44 (BI). As to conditions: filed as antagonist, Compound concentration 10.0 uM.

In series [3] the target is Endothelin-1 receptor (Homo sapiens) (UniProt P25101). The series can be described thus: ETA/H Eurofins SafetyScreen44 (BI). Conditions: Compound concentration 10.0 uM.
Series [4] addresses Delta-type opioid receptor (Homo sapiens) (UniProt P41143). The series can be described thus: DELTA2/H Eurofins SafetyScreen44 (BI). Conditions: Compound concentration 10.0 uM.
Series [5] concerns the target D(4) dopamine receptor (Homo sapiens) (UniProt P21917). Conditions: Compound concentration 10.0 uM.
Series [6] deals with Angiotensin-converting enzyme (Homo sapiens) (UniProt P12821). The series can be described thus: ACE(HU_AMTCH400) Eurofins SafetyScreen44 (BI). As to conditions: Compound concentration 10.0 uM.
The target of series [7] is Neuronal acetylcholine receptor; alpha4/beta2 (Homo sapiens) (UniProt P17787+P43681). The series can be described thus: N_NEURO_A4B2 Eurofins SafetyScreen44 (BI). As to conditions: filed as agonist, Compound concentration 10.0 uM. It is filed as protein-complex assay.
The target in series [8] is T2, Thyroid hormone receptor alpha (Rattus norvegicus) (UniProt P63059).
T2 sequence (whole entry): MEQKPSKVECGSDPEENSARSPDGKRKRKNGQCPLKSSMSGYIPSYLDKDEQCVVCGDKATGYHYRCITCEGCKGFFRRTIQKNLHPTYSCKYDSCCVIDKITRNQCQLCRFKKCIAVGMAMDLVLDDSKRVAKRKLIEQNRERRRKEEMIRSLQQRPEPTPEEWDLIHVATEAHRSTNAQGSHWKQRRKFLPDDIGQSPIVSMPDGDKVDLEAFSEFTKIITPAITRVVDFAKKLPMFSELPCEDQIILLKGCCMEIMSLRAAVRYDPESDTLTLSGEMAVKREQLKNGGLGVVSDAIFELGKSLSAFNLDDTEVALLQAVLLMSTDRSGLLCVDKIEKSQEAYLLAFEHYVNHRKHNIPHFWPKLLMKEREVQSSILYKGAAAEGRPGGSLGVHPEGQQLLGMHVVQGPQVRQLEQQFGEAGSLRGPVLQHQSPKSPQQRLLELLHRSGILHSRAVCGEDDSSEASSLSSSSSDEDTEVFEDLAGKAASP
The series can be described thus: THYROID HORM Eurofins SafetyScreen44 (BI).

For series [9], the target named is Glutamate receptor ionotropic, NMDA 1 (Rattus norvegicus) (UniProt P35439). Nature of the series: NMDAGLSI/RA Eurofins SafetyScreen44 (BI). As to conditions: Compound concentration 10.0 uM.
For series [10], the system named is imidazoline I2 receptor (Rattus norvegicus). The series can be described thus: I2/CENTR/R Eurofins SafetyScreen44 (BI). Conditions: Compound concentration 10.0 uM.
The target in series [11] is Peroxisome proliferator-activated receptor alpha (Homo sapiens) (UniProt Q07869). Nature of the series: PPAR_ALPHA Eurofins SafetyScreen44 (BI). As to conditions: filed as agonist, Compound concentration 10.0 uM.
The target of another series is hERG (KCNH2) (Homo sapiens, UniProt Q12809). Nature of the series: K+/HERG Eurofins SafetyScreen44 (BI). As to conditions: compound concentration 10 uM, read-out: % Ctrl.
In series [12] the target is Adenosine receptor A3 (Homo sapiens) (UniProt P0DMS8). The series can be described thus: A3/H Eurofins SafetyScreen44 (BI). Conditions: Compound concentration 10.0 uM.
The target of series [13] is Sigma non-opioid intracellular receptor 1 (Homo sapiens) (UniProt Q99720). Nature of the series: SIGMA1/HU Eurofins SafetyScreen44 (BI). As to conditions: Compound concentration 10.0 uM.
The target in series [14] is T3, Alpha-2B adrenergic receptor (Homo sapiens) (UniProt P18089).
T3 sequence (whole entry): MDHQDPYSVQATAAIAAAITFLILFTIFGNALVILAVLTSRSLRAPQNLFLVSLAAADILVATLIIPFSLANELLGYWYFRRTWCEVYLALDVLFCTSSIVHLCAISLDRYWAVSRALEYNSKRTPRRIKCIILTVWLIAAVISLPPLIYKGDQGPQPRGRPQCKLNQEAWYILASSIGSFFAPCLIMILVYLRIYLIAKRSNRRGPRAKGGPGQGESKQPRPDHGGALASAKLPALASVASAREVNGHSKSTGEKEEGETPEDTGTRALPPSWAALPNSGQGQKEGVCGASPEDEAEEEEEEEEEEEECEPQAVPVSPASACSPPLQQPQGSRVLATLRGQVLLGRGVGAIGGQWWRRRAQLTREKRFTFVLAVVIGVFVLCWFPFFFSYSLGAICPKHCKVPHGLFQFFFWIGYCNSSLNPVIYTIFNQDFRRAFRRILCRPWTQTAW
The series can be described thus: ALPHA2B/H Eurofins SafetyScreen44 (BI).

Series [15] addresses 5-hydroxytryptamine receptor 2B (Homo sapiens) (UniProt P41595). Nature of the series: 5HT2B/HU Eurofins SafetyScreen44 (BI). Conditions: Compound concentration 10.0 uM.
For series [16], the target named is Free fatty acid receptor 1 (Homo sapiens, UniProt O14842). Nature of the series: IPOne assay.
Series [17] deals with Adenosine receptor A2a (Homo sapiens) (UniProt P29274). Nature of the series: A2A/HU Eurofins SafetyScreen44 (BI). As to conditions: Compound concentration 10.0 uM.
Adenosine receptor A2a (Homo sapiens), sequence (P29274 whole entry): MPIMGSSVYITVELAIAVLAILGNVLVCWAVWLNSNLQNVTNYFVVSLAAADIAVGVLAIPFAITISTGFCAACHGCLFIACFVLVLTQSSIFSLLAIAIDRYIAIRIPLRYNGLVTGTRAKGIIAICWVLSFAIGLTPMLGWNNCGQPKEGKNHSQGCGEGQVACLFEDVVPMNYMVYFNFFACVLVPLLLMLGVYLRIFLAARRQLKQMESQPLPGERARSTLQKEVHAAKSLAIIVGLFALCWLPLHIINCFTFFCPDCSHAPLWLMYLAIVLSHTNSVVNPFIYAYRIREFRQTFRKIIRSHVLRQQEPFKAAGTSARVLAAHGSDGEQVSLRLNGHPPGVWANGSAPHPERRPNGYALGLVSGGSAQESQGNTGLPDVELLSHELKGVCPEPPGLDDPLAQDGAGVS

Beta-2 adrenergic receptor (Homo sapiens), sequence (P07550 whole entry, looked up): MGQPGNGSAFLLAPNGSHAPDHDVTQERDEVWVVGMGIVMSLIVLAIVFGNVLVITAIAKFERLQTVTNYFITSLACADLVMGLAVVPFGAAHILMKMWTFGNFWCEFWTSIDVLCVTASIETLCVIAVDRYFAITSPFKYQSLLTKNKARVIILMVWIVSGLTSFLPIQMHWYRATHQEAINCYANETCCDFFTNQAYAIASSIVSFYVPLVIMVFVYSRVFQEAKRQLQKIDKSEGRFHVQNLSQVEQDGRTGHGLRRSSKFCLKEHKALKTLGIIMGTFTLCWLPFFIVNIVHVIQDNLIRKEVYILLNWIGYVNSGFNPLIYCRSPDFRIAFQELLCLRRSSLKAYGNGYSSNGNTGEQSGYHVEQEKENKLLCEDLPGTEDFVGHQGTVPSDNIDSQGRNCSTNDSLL
D(4) dopamine receptor (Homo sapiens), sequence (P21917 whole entry): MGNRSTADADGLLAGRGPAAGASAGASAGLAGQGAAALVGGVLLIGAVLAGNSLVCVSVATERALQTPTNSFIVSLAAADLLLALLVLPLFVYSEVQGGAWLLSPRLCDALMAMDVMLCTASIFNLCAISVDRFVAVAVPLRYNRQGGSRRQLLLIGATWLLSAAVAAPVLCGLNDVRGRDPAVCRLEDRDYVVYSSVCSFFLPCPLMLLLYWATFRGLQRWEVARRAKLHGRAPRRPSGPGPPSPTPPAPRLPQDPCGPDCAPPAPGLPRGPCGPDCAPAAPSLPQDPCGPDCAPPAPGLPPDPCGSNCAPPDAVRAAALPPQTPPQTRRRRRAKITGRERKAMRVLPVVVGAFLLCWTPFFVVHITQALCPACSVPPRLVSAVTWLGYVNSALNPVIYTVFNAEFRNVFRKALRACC
Peroxisome proliferator-activated receptor alpha (Homo sapiens), sequence (Q07869 whole entry): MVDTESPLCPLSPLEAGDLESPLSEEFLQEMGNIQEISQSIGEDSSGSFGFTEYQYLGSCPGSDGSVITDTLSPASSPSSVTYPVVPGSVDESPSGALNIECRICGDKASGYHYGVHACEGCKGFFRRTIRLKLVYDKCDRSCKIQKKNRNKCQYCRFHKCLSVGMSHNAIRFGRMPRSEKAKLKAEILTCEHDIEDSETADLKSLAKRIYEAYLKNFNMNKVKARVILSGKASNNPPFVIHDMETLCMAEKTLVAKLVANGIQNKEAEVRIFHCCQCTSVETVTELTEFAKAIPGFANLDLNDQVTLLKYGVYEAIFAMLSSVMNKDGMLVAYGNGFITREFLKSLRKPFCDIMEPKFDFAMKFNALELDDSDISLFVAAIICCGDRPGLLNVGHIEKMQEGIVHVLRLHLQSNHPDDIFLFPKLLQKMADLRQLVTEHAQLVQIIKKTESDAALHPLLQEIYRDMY
Free fatty acid receptor 1, sequence (O14842 whole entry): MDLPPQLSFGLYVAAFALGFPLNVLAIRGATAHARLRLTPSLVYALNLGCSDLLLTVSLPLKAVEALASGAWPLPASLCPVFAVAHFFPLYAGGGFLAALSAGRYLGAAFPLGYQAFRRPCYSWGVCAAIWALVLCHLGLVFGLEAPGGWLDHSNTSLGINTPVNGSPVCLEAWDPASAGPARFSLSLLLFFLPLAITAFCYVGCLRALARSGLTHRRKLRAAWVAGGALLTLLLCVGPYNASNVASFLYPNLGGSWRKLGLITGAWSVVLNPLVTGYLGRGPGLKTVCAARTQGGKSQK
Delta-type opioid receptor (Homo sapiens), sequence (P41143 whole entry): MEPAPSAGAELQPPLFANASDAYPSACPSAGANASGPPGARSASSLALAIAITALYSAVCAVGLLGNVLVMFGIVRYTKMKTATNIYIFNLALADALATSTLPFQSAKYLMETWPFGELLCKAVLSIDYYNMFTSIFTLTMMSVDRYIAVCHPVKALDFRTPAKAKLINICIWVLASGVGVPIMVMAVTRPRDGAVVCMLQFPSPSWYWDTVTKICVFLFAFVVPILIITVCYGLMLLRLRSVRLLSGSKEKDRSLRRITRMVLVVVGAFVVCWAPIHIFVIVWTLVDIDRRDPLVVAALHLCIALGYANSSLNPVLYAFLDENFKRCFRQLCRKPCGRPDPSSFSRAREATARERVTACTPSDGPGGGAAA
Sigma non-opioid intracellular receptor 1 (Homo sapiens), sequence (Q99720 whole entry): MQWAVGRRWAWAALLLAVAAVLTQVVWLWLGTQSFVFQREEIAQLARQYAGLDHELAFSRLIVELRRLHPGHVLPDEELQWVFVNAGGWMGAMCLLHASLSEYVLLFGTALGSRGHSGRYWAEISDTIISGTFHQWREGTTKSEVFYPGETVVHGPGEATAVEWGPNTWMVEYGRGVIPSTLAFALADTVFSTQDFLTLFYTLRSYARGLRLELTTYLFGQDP
hERG (KCNH2), sequence (Q12809 whole entry): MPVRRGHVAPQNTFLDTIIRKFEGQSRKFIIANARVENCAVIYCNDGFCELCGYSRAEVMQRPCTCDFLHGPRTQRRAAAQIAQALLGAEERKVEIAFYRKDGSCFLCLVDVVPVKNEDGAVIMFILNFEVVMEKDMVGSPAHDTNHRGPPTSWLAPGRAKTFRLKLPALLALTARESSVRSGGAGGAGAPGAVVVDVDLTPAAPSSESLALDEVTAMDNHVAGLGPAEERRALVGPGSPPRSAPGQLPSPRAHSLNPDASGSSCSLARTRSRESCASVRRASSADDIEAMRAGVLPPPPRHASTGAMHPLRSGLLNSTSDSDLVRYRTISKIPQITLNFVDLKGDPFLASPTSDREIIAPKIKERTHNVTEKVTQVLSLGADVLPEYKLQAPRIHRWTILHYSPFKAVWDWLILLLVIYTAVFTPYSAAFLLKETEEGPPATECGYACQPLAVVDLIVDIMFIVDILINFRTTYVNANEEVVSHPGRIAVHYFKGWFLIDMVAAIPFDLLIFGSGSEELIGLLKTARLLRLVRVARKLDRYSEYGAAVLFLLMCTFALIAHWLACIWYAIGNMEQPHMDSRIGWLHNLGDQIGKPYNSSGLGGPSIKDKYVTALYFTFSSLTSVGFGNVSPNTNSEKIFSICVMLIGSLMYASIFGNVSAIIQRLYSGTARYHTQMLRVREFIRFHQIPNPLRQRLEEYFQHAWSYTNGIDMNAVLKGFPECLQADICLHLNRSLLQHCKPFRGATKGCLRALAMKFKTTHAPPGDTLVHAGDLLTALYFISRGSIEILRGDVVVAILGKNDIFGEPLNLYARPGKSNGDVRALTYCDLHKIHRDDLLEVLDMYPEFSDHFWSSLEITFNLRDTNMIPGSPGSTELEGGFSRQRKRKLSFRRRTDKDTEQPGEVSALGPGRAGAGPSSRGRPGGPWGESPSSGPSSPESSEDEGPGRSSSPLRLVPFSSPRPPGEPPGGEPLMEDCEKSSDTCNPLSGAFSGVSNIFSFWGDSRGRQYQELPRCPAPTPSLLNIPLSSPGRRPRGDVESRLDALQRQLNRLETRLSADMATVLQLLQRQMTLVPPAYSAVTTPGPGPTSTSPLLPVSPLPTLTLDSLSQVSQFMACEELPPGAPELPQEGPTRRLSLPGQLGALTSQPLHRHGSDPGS
Adenosine receptor A3 (Homo sapiens), sequence (P0DMS8 whole entry): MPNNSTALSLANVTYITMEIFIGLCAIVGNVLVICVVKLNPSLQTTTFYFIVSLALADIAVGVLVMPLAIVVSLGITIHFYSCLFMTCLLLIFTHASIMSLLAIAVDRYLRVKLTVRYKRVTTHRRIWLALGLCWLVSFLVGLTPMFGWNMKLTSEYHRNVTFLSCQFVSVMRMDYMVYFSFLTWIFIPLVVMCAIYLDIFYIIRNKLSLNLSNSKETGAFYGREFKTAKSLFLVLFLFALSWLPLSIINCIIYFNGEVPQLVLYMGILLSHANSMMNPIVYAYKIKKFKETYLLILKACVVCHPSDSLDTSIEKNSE
5-hydroxytryptamine receptor 2B (Homo sapiens), sequence (P41595 whole entry): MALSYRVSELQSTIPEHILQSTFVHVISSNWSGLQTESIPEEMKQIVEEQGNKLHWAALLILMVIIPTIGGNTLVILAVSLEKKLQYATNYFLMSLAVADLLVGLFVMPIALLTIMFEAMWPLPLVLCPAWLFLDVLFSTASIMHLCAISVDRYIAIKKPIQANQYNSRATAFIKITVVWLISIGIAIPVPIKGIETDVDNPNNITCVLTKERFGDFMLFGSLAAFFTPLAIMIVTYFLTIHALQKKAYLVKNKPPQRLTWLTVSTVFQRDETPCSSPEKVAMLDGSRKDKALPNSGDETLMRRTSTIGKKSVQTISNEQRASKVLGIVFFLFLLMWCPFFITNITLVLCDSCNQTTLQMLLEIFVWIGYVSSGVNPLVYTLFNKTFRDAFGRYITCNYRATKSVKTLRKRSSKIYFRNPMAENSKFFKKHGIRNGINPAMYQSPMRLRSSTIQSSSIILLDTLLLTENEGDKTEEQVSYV

As a reminder, the inhibition is the share of the control response that was lost under treatment. In the case of `COCCCS(=O)(=O)c1cc(C)c(-c2ccc(F)c3c2CC[C@H]3Oc2ccc3c(c2)OC[C@H]3CC(=O)O)c(C)c1`, the inhibition was 2.56% in series [1] and 12.9% in series [5]. For the same compound, the residual activity in series [2] is 112%; in [3] it was 56%; in series [4] it was 89%; in [6], 99%; in series [7] it was 112%.
A word on the EC50: it is the concentration at which the effect is half-maximal. Turning to `Cc1cc(OCCC(C)(C)O)cc(C)c1-c1ccc(F)c2c1CC[C@H]2Oc1ccc2c(c1)OC[C@H]2CC(=O)O`, the residual activity in series [8] (Compound concentration 0.3 uM) was 97%; in series [8] (Compound concentration 1.0 uM), 95%; in [8] (Compound concentration 3.0 uM) it was 77%; in [8] (Compound concentration 10.0 uM), 39.5%; in series [8] (Compound concentration 30.0 uM), 2%; in [9], 86%. Besides, the residual activity in [10] was 86%; in series [11], 119%; in [12] it was 100%; in [13] it was 91%; in [14] (Compound concentration 0.3 uM) it was 97%; in [14] (Compound concentration 1.0 uM), 98%. Moreover, the residual activity in series [14] (Compound concentration 3.0 uM) is 103%; in [14] (Compound concentration 10.0 uM), 90%; in series [14] (Compound concentration 30.0 uM), 75%; in series [15], 82%; in [17], 125%. Also, at hERG (KCNH2), the activity at 10 µM is 80% (not active). The EC50 in series [16] was 3 nM (active).
